From patent publication US7018989B2, “Chemical compounds” (University College Cardiff Consultants, LTD, priority 1995, dated 2006)
Like-named read-outs stand apart in the source and are kept apart here.

Legend:
CEM cells = assay: Toxicity to CEM cells; type: cell-based, human
Procedure: (§1) Cells were infected with HIV-1 as previously described [Balzarini et al. AIDS (1991), 5, 21–28]. Briefly, 5×10^5 cells per milliliter were infected with HIV-1 or HIV-2 at 100 CCID50 (50% cell culture infective dose) per milliliter of cell suspension. Then 100 μL of the infected cell suspension was transferred to microtiter plate wells and mixed with 100 μL of the appropriate dilutions of the test compounds. After 4 days giant cell formation was recorded microscopically in the HIV-infected cell cultures [CEM], and after 5 days the number of viable cells was determined by trypan blue staining of the HIV-infected cell cultures [MT4].
(§2) The data columns are, in order: • HIV1 MT4: EC50 in μM for inhibition of HIV-1 in MT4 cells. • HIV2 MT4: EC50 in μM for inhibition of HIV-2 in MT4 cells. • CC50 MT4: CC50 in μM for toxicity to MT-4 cells. • HIV1 CEM: EC50 in μM for inhibition of HIV-1 in CEM cells. • HIV2 CEM: EC50 in μM for inhibition of HIV-2 in CEM cells. • HIV2 CEM-TK-: EC50 in μM for inhibition of HIV-2 in CEM/TK^− cells. • CC50 CEM: CC50 in μM for toxicity to CEM cells. • EC50 MSV: EC50 in μM for inhibition of MSV • MCC MSV: Minimum cytotoxic concentration in MSV assay

HIV-2 [1] = assay: Inhibition of HIV-2 in CEM cells (giant cell formation); type: cell-based; conditions: read-out: HIV2 CEM: EC50 for inhibition of HIV-2 in CEM cells
Procedure: as §1, §2

HIV-2 [2] = assay: Inhibition of HIV-2 in CEM/TK- cells; type: cell-based
Procedure: as §1, §2

HIV-1 = assay: microbe, parasite or virus in culture; conditions: read-out: HIV1 CEM: EC50 for inhibition of HIV-1 in CEM cells
Procedure: as §1, §2

[3] = Minimum cytotoxic concentration in MSV assay; type: cell-based
From the text: as §2, with “CEM/TK^-” for “CEM/TK^−”, “[…]:” for “MSV • MCC MSV:”

MSV = assay: Inhibition of MSV (in vitro); type: cell-based, Moloney Sarcoma Virus
From the text: as §2

[4] = Table 6, mean of two or more repeat experiments
[5] = Table 6, mean of two or more repeat experiments, read-out: HIV2 CEM-TK-: EC50 for inhibition of HIV-2 in CEM/TK^− cells
[6] = CEM/TK- cells, HIV-2, read-out: HIV2 CEM-TK-: EC50 for inhibition of HIV-2 in CEM/TK- cells

CCCCCCCCCCO[PH](=O)OCC1C=CC(n2cc(C)c(=O)[nH]c2=O)O1 (stereo not drawn) [Compound 789] gave a CC50 (CEM cells; [4]) of 64 µM, an EC50 (HIV-2 [1]; [4]) of 0.65 µM and an EC50 (HIV-2 [2]; [5]) of 40 µM.
Cc1cn(C2C=CC(COP(=O)(Oc3ccccc3)Oc3ccccc3)O2)c(=O)[nH]c1=O (stereo not drawn) [Compound 880] showed a CC50 (CEM cells; [4]) of at least 250 µM, an EC50 (HIV-2 [1]; [4]) of 25 µM and an EC50 (HIV-2 [2]; [5]) of 75 µM.
For COC(=O)C(C)NP(=O)(OC[C@@H]1CC[C@H](n2cnc3c(N)ncnc32)O1)Oc1ccccc1 (stereo partly drawn) [Compound 1093, 2′,3′-dideoxy Adenosine 5′-(phenylmethoxyalaninyl) phosphoramidate], the CC50 (CEM cells; CEM cells) was 2.57 µM, the EC50 (HIV-1; CEM cells, HIV-1) was 0.016 µM and the “MCC MSV: Minimum cytotoxic concentration in MSV assay” value (“MCC MSV” below) ([3]; MSV assay) was over 20. It also gave an EC50 (MSV; MSV) of 1.95 µM, an EC50 (HIV-2 [1]; CEM cells, HIV-2) of 0.035 µM and an EC50 (HIV-2 [2]; [6]) of 0.055 µM.
With CCOC(=O)CN(C)P(=O)(OC[C@@H]1C=C[C@H](n2cc(C)c(=O)[nH]c2=O)O1)Oc1ccccc1 (stereo partly drawn) [Compound 1133, 2′,3′-dideoxy-2′,3′-didehydrothymidine 5′-(phenylethoxysarcosinyl phosphate)] the CC50 (CEM cells; [4]) was at least 250 µM, the EC50 (HIV-1; [4]) was 75 µM and the “MCC MSV” value ([3]; Table 6) was over 100. The EC50 (MSV; Table 6) was over 100 µM, the EC50 (HIV-2 [1]; [4]) was 87.5 µM and the EC50 (HIV-2 [2]; [5]) was over 250 µM.
With COP(=O)(NC(C)C(=O)OCc1ccccc1)OCC1C=CC(n2cc(C)c(=O)[nH]c2=O)O1 (stereo not drawn) [Compound 1135] the CC50 (CEM cells; [4]) was over 250 µM, the EC50 (HIV-1; [4]) was 10 µM and the “MCC MSV” value ([3]; Table 6) was over 100. It also gave an EC50 (MSV; Table 6) of over 100 µM, an EC50 (HIV-2 [1]; [4]) of 15 µM and an EC50 (HIV-2 [2]; [5]) of 17.5 µM.
Compound CCCNP(=O)(OCC1C=CC(n2cc(C)c(=O)[nH]c2=O)O1)Oc1ccccc1 (stereo not drawn) [Compound 858] has a CC50 (CEM cells; [4]) of over 250 µM, an EC50 (HIV-1; [4]) of over 250 µM and an EC50 (HIV-2 [1]; [4]) of over 250 µM. For the same compound, the EC50 (HIV-2 [2]; [5]) was over 250 µM.
Work on CCCCCCNP(=O)(OCC1C=CC(n2cc(C)c(=O)[nH]c2=O)O1)Oc1ccccc1 (stereo not drawn) [Compound 859] yielded a CC50 (CEM cells; [4]) of 145 µM, an EC50 (HIV-1; [4]) of over 50 µM and an EC50 (HIV-2 [1]; [4]) of over 50 µM. The EC50 (HIV-2 [2]; [5]) was over 50 µM.
Cc1cn(C2CC(N=[N+]=[N-])C(COP(=O)(OCCC#N)Oc3ccccc3)O2)c(=O)[nH]c1=O (stereo not drawn) [Cpd 846] gave a CC50 (CEM cells; CEM cells) of over 250 µM, an EC50 (HIV-1; CEM cells, HIV-1) of 13 µM and an EC50 (HIV-2 [1]; CEM cells, HIV-2) of 14 µM. For the same compound, the EC50 (HIV-2 [2]; [6]) was over 250 µM.
CCCCCCOP(=O)(OCCC#N)OCC1OC(n2cc(C)c(=O)[nH]c2=O)CC1N=[N+]=[N-] (stereo not drawn) [Cpd 856] showed a CC50 (CEM cells; CEM cells) of over 250 µM, an EC50 (HIV-1; CEM cells, HIV-1) of 13 µM and an EC50 (HIV-2 [1]; CEM cells, HIV-2) of 25 µM. It also gave an EC50 (HIV-2 [2]; [6]) of over 250 µM.
With CCCCCCO[PH](=O)OCC1C=CC(n2cc(C)c(=O)[nH]c2=O)O1 (stereo not drawn) [Compound 786] the CC50 (CEM cells; [4]) was 150 µM, the EC50 (HIV-1; [4]) was 0.6 µM and the EC50 (HIV-2 [1]; [4]) was 0.5 µM. It also gave an EC50 (HIV-2 [2]; [5]) of 30 µM.
For CCCCCCCCCCCCNP(=O)(OCC1C=CC(n2cc(C)c(=O)[nH]c2=O)O1)Oc1ccccc1 (stereo not drawn) [Compound 828], the CC50 (CEM cells; [4]) was 14 µM, the EC50 (HIV-1; [4]) was over 10 µM and the EC50 (HIV-2 [1]; [4]) was over 10 µM.
For COC(=O)C(C)NP(=O)(OCC1OC(n2cc(C)c(=O)[nH]c2=O)CC1N=[N+]=[N-])Oc1c(F)c(F)c(F)c(F)c1F (stereo not drawn) [Cpd 780], the CC50 (CEM cells; CEM cells) was 106 µM, the EC50 (HIV-1; CEM cells, HIV-1) was 23 µM and the EC50 (HIV-2 [1]; CEM cells, HIV-2) was 33 µM. For the same compound, the EC50 (HIV-2 [2]; [6]) was 100 µM.
For CCCCCCCCn1c(=O)c(C)cn(C2CC(N=[N+]=[N-])C(COP(=O)(NC(C)C(=O)OC)Oc3ccccc3)O2)c1=O (stereo not drawn) [Cpd 774], the CC50 (CEM cells; CEM cells) was 15 µM, the EC50 (HIV-1; CEM cells, HIV-1) was over 10 µM and the EC50 (HIV-2 [1]; CEM cells, HIV-2) was over 10 µM.
With CCCCCCCCNP(=O)(OCC1C=CC(n2cc(C)c(=O)[nH]c2=O)O1)Oc1ccccc1 (stereo not drawn) [Compound 829] the CC50 (CEM cells; [4]) was 23 µM, the EC50 (HIV-1; [4]) was over 10 µM and the EC50 (HIV-2 [1]; [4]) was at least 10 µM.
Cc1cn(C2C=CC(COP(=O)(O)Oc3ccccc3)O2)c(=O)[nH]c1=O (stereo not drawn) [Compound 853] showed a CC50 (CEM cells; [4]) of 153 µM, an EC50 (HIV-1; [4]) of 0.65 µM and an EC50 (HIV-2 [1]; [4]) of 0.7 µM. For the same compound, the EC50 (HIV-2 [2]; [5]) was 23 µM.
Compound COC(=O)C(C)NP(=O)(OCC1OC(n2cc(C)c(=O)[nH]c2=O)CC1N=[N+]=[N-])Oc1ccc(Br)cc1Br (stereo not drawn) [Cpd 777] has a CC50 (CEM cells; CEM cells) of 55 µM, an EC50 (HIV-1; CEM cells, HIV-1) of 0.5 µM and an EC50 (HIV-2 [1]; CEM cells, HIV-2) of 0.55 µM. It also gave an EC50 (HIV-2 [2]; [6]) of 0.19 µM.
Compound COC(=O)C1CCCN1P(=O)(OCC1C=CC(n2cc(C)c(=O)[nH]c2=O)O1)Oc1ccccc1 (stereo not drawn) [Compound 879] has a CC50 (CEM cells; [4]) of 42.5 µM, an EC50 (HIV-1; [4]) of over 10 µM and an EC50 (HIV-2 [1]; [4]) of over 10 µM. For the same compound, the EC50 (HIV-2 [2]; [5]) was over 10 µM.
